For orientation: EC50 means the concentration that produces a half-maximal response. High values mean a need for much substance, low ones an effect from little substance. The IC50 is the concentration that inhibits the measured activity by half. By ED50 is commonly meant the dose at which the effect has come halfway, by size or by number of responders. A low value points to greater potency.

Molecules are shown by their SMILES.

Format in all cases: functional
For experiment [1], the target named is T1, Metabotropic glutamate receptor 2 (Homo sapiens, UniProt Q14416). Description: Agonist activity at mGlu2 receptor.
Experiment [2] has as its target T2, Metabotropic glutamate receptor 1 (Homo sapiens, UniProt Q13255). Description: Antagonist activity at human mGlu1b receptor.
The target of experiment [3] is T2, Metabotropic glutamate receptor 1. Kind of experiment: Antagonist activity at mGlu1 receptor.
For experiment [4] the target is unchanged. Description: Antagonist activity at human mGlu1 receptor.
Experiment [5] relates to Rattus norvegicus. Kind of experiment: Effect on CFA-induced hyperalgesia in ip dosed rat.
Experiment [6] concerns Rattus norvegicus. Description: Effect on carrageenan model of inflammatory pain in ip dosed rat.
The test system of experiment [7] is Rattus norvegicus. Description: Effect on pain in ip dosed rat in late phase of formalin assay.
The subject of experiment [8] is Mus musculus. Description: Effect on pain in po dosed mouse in early phase of formalin assay.
For experiment [9], the system named is Mus musculus. Description: Effect on pain in po dosed mouse in late phase of formalin assay.
Experiment [10] addresses T1, Metabotropic glutamate receptor 2. Kind of experiment: Antagonist activity at mGlu2 receptor.

T2 sequence (Q13255 whole entry): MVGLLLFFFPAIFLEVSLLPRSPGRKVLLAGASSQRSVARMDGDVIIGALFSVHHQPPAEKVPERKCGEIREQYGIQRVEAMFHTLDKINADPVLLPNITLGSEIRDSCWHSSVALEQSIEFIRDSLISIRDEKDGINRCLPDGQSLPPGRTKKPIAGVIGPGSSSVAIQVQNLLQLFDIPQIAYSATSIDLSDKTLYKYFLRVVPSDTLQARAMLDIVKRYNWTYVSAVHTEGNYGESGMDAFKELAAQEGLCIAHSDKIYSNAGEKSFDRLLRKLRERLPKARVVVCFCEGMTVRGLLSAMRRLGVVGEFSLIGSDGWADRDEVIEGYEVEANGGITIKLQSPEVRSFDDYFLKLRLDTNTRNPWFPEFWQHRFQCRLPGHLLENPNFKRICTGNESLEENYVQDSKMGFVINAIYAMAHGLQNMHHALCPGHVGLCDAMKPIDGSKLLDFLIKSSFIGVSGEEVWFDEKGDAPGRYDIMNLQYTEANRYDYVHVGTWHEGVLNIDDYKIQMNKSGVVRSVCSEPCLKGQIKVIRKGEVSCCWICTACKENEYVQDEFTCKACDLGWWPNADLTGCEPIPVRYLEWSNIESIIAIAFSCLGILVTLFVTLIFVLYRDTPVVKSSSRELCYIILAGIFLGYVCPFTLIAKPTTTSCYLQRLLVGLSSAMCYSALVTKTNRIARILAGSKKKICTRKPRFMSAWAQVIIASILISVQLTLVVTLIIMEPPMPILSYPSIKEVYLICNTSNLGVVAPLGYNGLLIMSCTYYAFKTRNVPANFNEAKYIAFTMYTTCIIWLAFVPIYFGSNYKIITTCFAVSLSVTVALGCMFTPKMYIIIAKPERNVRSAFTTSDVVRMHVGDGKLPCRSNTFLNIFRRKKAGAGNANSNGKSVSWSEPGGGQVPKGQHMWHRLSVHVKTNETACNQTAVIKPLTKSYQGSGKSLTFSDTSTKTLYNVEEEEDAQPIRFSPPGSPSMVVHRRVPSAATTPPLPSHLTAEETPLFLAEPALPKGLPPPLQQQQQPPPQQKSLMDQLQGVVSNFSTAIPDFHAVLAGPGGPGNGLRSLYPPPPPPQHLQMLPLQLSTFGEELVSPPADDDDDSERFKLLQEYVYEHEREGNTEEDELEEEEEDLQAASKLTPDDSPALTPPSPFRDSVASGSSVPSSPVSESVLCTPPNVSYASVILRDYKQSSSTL
T1 sequence (Q14416 whole entry): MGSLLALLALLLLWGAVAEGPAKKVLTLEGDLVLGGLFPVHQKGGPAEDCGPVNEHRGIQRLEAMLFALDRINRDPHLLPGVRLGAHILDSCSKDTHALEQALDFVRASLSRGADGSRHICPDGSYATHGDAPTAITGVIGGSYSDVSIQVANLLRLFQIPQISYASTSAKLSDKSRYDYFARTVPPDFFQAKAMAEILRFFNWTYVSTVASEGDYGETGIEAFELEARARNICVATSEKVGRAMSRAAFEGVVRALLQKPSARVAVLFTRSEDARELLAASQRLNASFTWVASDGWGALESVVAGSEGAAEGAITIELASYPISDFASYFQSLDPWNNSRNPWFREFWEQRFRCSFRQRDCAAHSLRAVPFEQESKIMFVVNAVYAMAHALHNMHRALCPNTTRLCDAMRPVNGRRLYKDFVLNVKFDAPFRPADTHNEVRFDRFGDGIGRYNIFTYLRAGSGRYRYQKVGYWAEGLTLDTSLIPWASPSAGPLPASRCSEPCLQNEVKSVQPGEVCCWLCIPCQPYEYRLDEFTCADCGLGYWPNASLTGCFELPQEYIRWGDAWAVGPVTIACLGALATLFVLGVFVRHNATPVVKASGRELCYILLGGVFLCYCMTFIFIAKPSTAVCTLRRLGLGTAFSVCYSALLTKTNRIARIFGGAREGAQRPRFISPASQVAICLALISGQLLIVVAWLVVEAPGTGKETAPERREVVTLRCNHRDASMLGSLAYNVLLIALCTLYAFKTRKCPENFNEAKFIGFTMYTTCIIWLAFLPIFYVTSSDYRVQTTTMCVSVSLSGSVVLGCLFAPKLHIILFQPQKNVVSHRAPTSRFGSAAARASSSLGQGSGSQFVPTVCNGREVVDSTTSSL

`N[C@H](C(=O)O)c1ccc(C(=O)O)c(O)c1`: the response in experiment [1] was half-maximal at 48 µM (EC50). `CCOC(=O)C12CC1/C(=N\O)c1ccccc1O2` (configuration not stated): the IC50 in experiment [2] was 6.6 µM. Regarding `C=C1C[C@@H]2COC(=O)[C@]2(Cc2ccc3ccccc3c2)C1`, in experiment [3], the IC50 was 0.16 µM.

Consider `CO[C@H]1CC[C@@H](C(=O)c2ccc3nc4c(cc3c2)CCCO4)CC1`, for which, in experiment [4], the midpoint of inhibition, the IC50, lay at 0.00121 µM. `N[C@H](C(=O)O)c1ccc(C(=O)O)cc1`: the midpoint of inhibition in experiment [3], the IC50, lay at 10 µM.

The molecule `N[C@H](C(=O)O)c1ccc(O)c(C(=O)O)c1` gave an IC50 in [3] of 40 µM.

For `CCc1ccc(-n2cnc3c(sc4nccc(N(C)C)c43)c2=O)cc1`, the ED50 in the experiment with Rattus norvegicus [5] turned out to be 15 µmol/kg; with Rattus norvegicus [6] it was 11 µmol/kg; in the experiment with Rattus norvegicus [7], 15 µmol/kg. In the case of `CCCOC(=O)c1[nH]c(C)c(C(=O)OC(C)C(C)(C)C)c1C` (configuration not stated), the ED50 in the experiment with Mus musculus [8] was determined as 0.3 mg/kg; in the experiment on Mus musculus [9], 0.3 mg/kg; in the experiment with Rattus norvegicus [7], 3 mg/kg.

For the molecule `Cc1c(C2=CCC(C(=O)N(C)C(C)C)CC2)nnn1-c1cccnc1F` (configuration not stated), the IC50 in experiment [3] was 0.006 µM. On the same count and under the same terms, to `COc1ccc(Nc2ncnc3ccc(OC)cc23)cc1` belongs 0.096 µM. Consider `NC(CC1c2ccccc2Sc2ccccc21)(C(=O)O)C1CC(C(=O)O)C1` (configuration not stated), for which inhibition in experiment [3] was half-maximal at 1 µM (IC50).

`C[C@@](N)(C(=O)O)c1ccc(C(=O)O)cc1`: the IC50 in experiment [3] and in experiment [10] was 4.3 µM each time.

The values above are taken from ChEMBL document CHEMBL1141458, “Prospects for metabotropic glutamate 1 receptor antagonists in the treatment of neuropathic pain” (J Med Chem, 2007).
